Test results as given in article PMC12298822 (Molecules, 2025).

Legend:
[1] = Pharmacokinetic study after a single oral 100 mg sitagliptin tablet in healthy Korean male subjects (LC-MS/MS of plasma); format: in vivo, human; conditions: single oral 100 mg tablet, fasting
Description: (§1) Human plasma samples were removed from a −70 °C deep freezer and thawed at room temperature. After vortexing and centrifugation, 100 µL of plasma was transferred into a glass tube. To this, 20 µL of the IS (1000 ng/mL) was added, followed by the addition of 2 mL of MTBE as the extraction solvent. The mixture was vortexed vigorously for 10 min and centrifuged at 1699 g for 10 min at 4 °C. The upper organic layer (2 mL) was carefully transferred to a new tube and evaporated to dryness under a nitrogen stream at 40 °C. The dried residue was reconstituted with a total volume of 1 mL of a reconstitution solvent composed of 0.01% formic acid in DW and 100% ACN (1:1, v/v), vortexed for 10 min, and centrifuged again at 1699× g. A 5 µL aliquot of the clear supernatant was injected into the LC–MS/MS system for analysis.
This study procedures were conducted with the principles of the Helsinki Declaration (World Medical Association Declaration of Helsinki 2000) and Korean Good Clinical Practice guidelines. The study was approved by the Institutional Review Board (IRB) of Kyung Hee University Hospital (IRB No. KHUH 2023-07-039; approval date: 20 October 2023). […] Blood samples were collected using EDTA-K2 anticoagulant tubes at various time points: pre-dose (0 h), and at 0.5, 1, 1.5, 2, 2.5, 3, 4, 6, 8, 16, 24, and 48 h following administration. Once collected, the blood samples were centrifuged at 3000 rpm for 10 min to separate the plasma, which was then transferred to labeled tubes and stored at −70 °C until analysis. All clinical procedures, including dosing, sampling, and analysis, were conducted consistently across all subjects.
Pharmacokinetic parameters such as Cmax (maximum plasma concentration), Tmax (time to reach Cmax), T1/2 (elimination half-life), and CL/F (apparent oral clearance) were determined from individual plasma concentration–time profiles. Non-compartmental analysis for extravascular administration was performed using BA Cal 2007 software (MFDS, version 1.0.0). This analysis calculated parameters including AUClast (area under the concentration–time curve from 0 to 48 h) and AUCinf (area under the curve extrapolated to infinity). The statistical analysis of the pharmacokinetic data was conducted using K-BE Test II software (version 2.0.2), which was developed and distributed by the MFDS [26].

[2] = Stability of stock and working solutions; format: physicochemical
Description: These stock solutions were diluted with 50% acetonitrile to prepare working standard solutions. The working solutions’ calibration curve (CC) concentrations were set at 50, 100, 500, 1000, 2500, 5000, and 10,000 ng/mL, while the quality control (QC) concentrations were 150, 3000, and 8000 ng/mL. The IS concentration was prepared at 1000 ng/mL. All working stock solutions were prepared and stored at −20 °C until use. […] Consequently, the final calibration curve range was 5–1000 ng/mL. […] All results were within the acceptable deviation limit of ±15% from the nominal concentrations. To assess the plasma stability of the analyte, low, medium, and high QC levels (n = 3) were tested under various conditions, including refrigerated storage at 4 °C for 24 h, deep-freezing at −70 °C for 7 h, three freeze–thaw cycles (between −70 °C and room temperature), and storage in the autosampler at 10 °C for 30 h. All measured concentrations under these conditions met the predefined acceptance criteria of ±15%, confirming the robustness and reliability of the analytical method.

[3] = cited from earlier work
[4] = 100 mg dose; cited from earlier work
[5] = Stability of sitagliptin in human plasma samples under storage and handling conditions; format: in vitro ADME
Description: as §1
The stability of both stock and working solutions was evaluated at low and high QC levels (n = 3) under storage conditions of room temperature (25 °C) for 3 h and −20 °C for 7 h. All results were within the acceptable deviation limit of ±15% from the nominal concentrations. To assess the plasma stability of the analyte, low, medium, and high QC levels (n = 3) were tested under various conditions, including refrigerated storage at 4 °C for 24 h, deep-freezing at −70 °C for 7 h, three freeze–thaw cycles (between −70 °C and room temperature), and storage in the autosampler at 10 °C for 30 h. All measured concentrations under these conditions met the predefined acceptance criteria of ±15%, confirming the robustness and reliability of the analytical method.

[6] = cited from earlier work; remark: listed apart in the source

N[C@@H](CC(=O)N1CCn2c(nnc2C(F)(F)F)C1)Cc1cc(F)c(F)cc1F [Sitagliptin, 7-[(3R)-3-amino-1-oxo-4-(2,4,5-trifluorophenyl)butyl]-5,6,7,8-tetrahydro-3-(trifluoromethyl)]
half-life ([1]; human, plasma, n = 8, mean): 8.47 ± 3.08 h
Cmax ([1]; human, n = 8, plasma, mean): 373 ng/mL
Tmax ([1]; human, n = 8, plasma, mean): 2.06 h
AUClast ([1]; n = 8, 0 to 48 h, mean): 2863.82 ng·h/mL
AUCinf ([1]; n = 8, extrapolated to infinity, mean): 3010.56 ± 302.61 ng·h/mL
Solution stability (%), mean ([2]; stock solution, room temperature (3 h), 15 ng/mL level, vs freshly prepared): 100.89%
Solution stability (%), mean ([2]; stock solution, room temperature (3 h), 800 ng/mL level, vs freshly prepared): 99.25%
Solution stability (%), mean ([2]; working solution, room temperature (7 h), 15 ng/mL level): 100.19%
Solution stability (%), mean ([2]; working solution, room temperature (7 h), 800 ng/mL level): 95.93%
binding to plasma proteins [3]: 38%
maximum concentration (Cmax) [4]: 327.98 ng/mL
terminal half-life (T1/2) [4]: 8.92 h
time to reach maximum concentration (Tmax) [4]: 2.68 h
Plasma sample stability (%), mean ([5]; human plasma, deep freeze (7 h, −70 °C), 15 ng/mL): 99.61%
Plasma sample stability (%), mean ([5]; human plasma, deep freeze (7 h, −70 °C), 300 ng/mL): 96.77%
Plasma sample stability (%), mean ([5]; human plasma, deep freeze (7 h, −70 °C), 800 ng/mL): 97.96%
Plasma sample stability (%), mean ([5]; human plasma, freeze–thaw (3 cycles), 15 ng/mL): 103.73%
Plasma sample stability (%), mean ([5]; human plasma, freeze–thaw (3 cycles), 300 ng/mL): 98.57%
Plasma sample stability (%), mean ([5]; human plasma, freeze–thaw (3 cycles), 800 ng/mL): 97.71%
Plasma sample stability (%), mean ([5]; human plasma, refrigeration (7 h, 4 °C), 15 ng/mL): 100.61%
Plasma sample stability (%), mean ([5]; human plasma, refrigeration (7 h, 4 °C), 300 ng/mL): 100.02%
Plasma sample stability (%), mean ([5]; human plasma, refrigeration (7 h, 4 °C), 800 ng/mL): 96.29%
Plasma sample stability (%), mean ([5]; human plasma, room temperature (7 h), 15 ng/mL): 102.57%
Plasma sample stability (%), mean ([5]; human plasma, room temperature (7 h), 300 ng/mL): 97.43%
Plasma sample stability (%), mean ([5]; human plasma, room temperature (7 h), 800 ng/mL): 96.99%
Plasma sample stability (%), mean ([5]; processed (LLE) plasma sample, autosampler (30 h, 10 °C), 15 ng/mL): 105.20%
Plasma sample stability (%), mean ([5]; processed (LLE) plasma sample, autosampler (30 h, 10 °C), 300 ng/mL): 97.37%
Plasma sample stability (%), mean ([5]; processed (LLE) plasma sample, autosampler (30 h, 10 °C), 800 ng/mL): 96.83%
apparent volume of distribution [6]: approximately 198 L
fraction of total clearance by hepatic metabolism (CYP3A4 and CYP2C8) [6]: < 16%
oral bioavailability [6]: approximately 87%
